Measurements taken from US5300679A, “Substituted propane-phosphinic acid compounds” (Ciba-Geigy Corporation, priority 1987, dated 1994).

System: pyramidal cells of hippocampal slice
Experiment: Penicilline-induced "epileptic" hippocampal slice preparation
Type: cell-based
Details: concentration of 6 μM
Method: The GABAB antagonists of the present invention interact at the GABAB receptor with IC50 values starting from about 10^-7 M (moles/liter) in rat brain cortex membranes. […] The antagonism against baclofen has also been shown in in vitro electrophysiological models, such as the penicilline-induced "epileptic" hippocampal slice preparation, where baclofen, at a concentration of 6 μM inhibits "epileptic"-like discharges of pyramidal cells. The compounds of the invention antagonise the effects of baclofen at concentrations from approximately 10 to approximately 100 μM. In vivo, antagonism has been shown by ionophoresis of baclofen on rat cerebral cortex, and systemic application of antagonists in doses of 10-100 mg/kg. The muscle relaxant effects of baclofen measured in the rotarod model are also antagonized at doses of about 30 mg/kg ip.

NCC(CC(=O)O)c1ccc(Cl)cc1 (stereo not shown) [baclofen]
inhibition of "epileptic"-like discharges of pyramidal cells: inhibits
